Patent EP1113726B1, “USE OF NEOHESPERIDIN DIHYDROCHALCONE FOR THE MANUFACTURE OF A MEDICAMENT FOR PREVENTING OR TREATING ELEVATED BLOOD LIPID LEVEL-RELATED DISEASES” (Korea Research Institute of Bioscience and Biotechnology, priority 1998, dated 2000)

Assays:
[1] = test system: New Zealand White rabbits; test: Microscopic grading of abnormal fat-containing cells in the liver of cholesterol-fed rabbits (fatty liver); assay type: in vivo; settings: 1 % cholesterol diet for 6 weeks plus 1 mg/kg Lovastatin or 0.05 % neohesperidin dihydrochalcone
Description: (§1) 30 three-month-old New Zealand White rabbits(Yeonam Horticulture and Animal Husbandry College, Korea), each weighing about 2.5 to 2.6 kg, were raised under a condition of temperature 20±2°C, relative humidity 55±5 %, and photoperiod 12L/12D. The rabbits were divided into 3 groups and 3 groups of rabbits were fed with 3 different diets, i.e., RC4 diet(Oriental Yeast Co., Japan) containing 1 % cholesterol(Control group); 1 % cholesterol plus 1 mg/kg Lovastatin®(Merck, U.S.A.)(Lovastatin group); and 1 % cholesterol plus 0.05 % neohesperidin dihydrochalcone(Neohesperidin dihydrochalcone group), respectively. RC4 diet comprises 7.6 % moisture, 22.8 % crude protein, 2.8 % crude fat, 8.8 % crude ash, 14.4 % crude cellulose and 43.6 % soluble nitrogen-free substances. Neohesperidin dihydrochalcone was purchased from Sigma Chemical Co.(St. Louis, MO).
(§2) The rabbits were fed for 6 weeks while being allowed free access to the diets and water.
In order to evaluate the effects of feeding a high cholesterol diet with neohesperidin dihydrochalcone on liver tissues, the liver specimens taken from the sacrificed rabbit in Step 2 of Example 6 were treated in accordance with the procedure disclosed in Fogt F. and Nanji A., Toxicology and Applied Pharmacology, 136, 87-93, 1996; and Keegan A., et al., Journal of Hepatology 23: 591-600, 1995, and observed under a microscope to be classified into four grades, i.e., 1+(0-25%), 2+(26-50%), 3+(51-75), 4+(76-100%) based on the proportion of abnormal fat-containing cells around the central vein in the liver acinus.
Figs. 2A, 2B and 2C present the microscopic features of the livers of the rabbits administered with 1% cholesterol; 1% cholesterol plus 1 mg/kg Lovastatin®; 1% and cholesterol plus 0.05% neohesperidin dihydrochalcone, respectively.

[2] = test system: New Zealand White rabbits; test: Chemical analysis of blood of cholesterol-fed rabbits; assay type: in vivo
Description: as §1, §2
After six weeks, the rabbits were anesthetized with an intramuscular injection of ketamine (50 mg/kg) in the femoral region and sacrificed.

ICR female mice = settings: mouse, oral, single dose of 1,000 mg/kg
Description: 12 seven-week-old, specific pathogen-free ICR female mice, six female mice each weighing about 25 to 29 g and six male mice each weighing about 34 to 38 g, were kept under an environment of 22±1°C, 55±5 % relative humidity and 12L/12D photoperiod. Fodder(Cheiljedang Co., mouse and rat fodder) and water were sterilized and fed to the mice.
Neohesperidin dihydrochalcone purchased from Aldrich-Sigma Chemical Co. (St. Louis, MO, U.S.A) was dissolved in 0.5 % Tween 80 to a concentration of 100 mg/ml, and the solution was orally administered to the mice in an amount of 0.2 ml per 20 g of mouse body weight. […] Further, on the 10th day, the mice were sacrificed and the internal organs were visually examined.

Human = test: Effect of administration to a human on plasma lipid metabolism; assay type: in vivo; settings: two men in their mid-fifties, daily oral dose of 10mg/kg, capsule, 60 days, before versus after
Description: Two men in their mid-fifties were administered with a daily oral dose of 10mg/kg of neohesperidin dihydrochalcone in the form of a capsule for 60 days. The plasma cholesterol and neutral lipid(triglyceride) contents were determined before and after the administration.

[3] = test system: New Zealand White rabbits; test: Analysis for fatty streak in the main artery of cholesterol-fed rabbits (Oil Red O staining); assay type: in vivo; settings: 1 % cholesterol diet for 6 weeks plus 1 mg/kg Lovastatin or 0.05 % neohesperidin dihydrochalcone
Description: as §1, §2
The chest of each of the rabbits sacrificed in Step 2 was incised. The downward portion of the main artery from the site 1 cm above the aortic valve was cut out in a length of about 5 cm and the fat surrounding the main artery was removed. The main artery was incised in the middle along the longitudinal axis and pinned to a dish. The moist artery was photographed and, then, the staining of fatty streaks was carried out in accordance with the method of Esper, E., et al. (J. Lab. Clin. Med., 121, 103-110(1993)) as follows.
A part of the incised main artery was washed three times with anhydrous propylene glycol for 2 min and stained for 30 min. with a saturated solution of Oil Red O(ORO, Sigma Co.) dissolved in propylene glycol. Thereafter, the artery was washed twice with 85 % propylene glycol for 3 min. to remove remaining staining solution and, then washed with physiological saline. The artery was photographed and the photograph was traced. The area of stained region (fatty streak region) was determined with an image analyzer(LEICA, Q-600, Germany) and its proportion(%) to the total arterial area was calculated.

Sprague-Dawley rats = test: Plasma total cholesterol, HDL-cholesterol and neutral lipid levels in rats fed a high-cholesterol diet; settings: 1 % cholesterol diet plus 0.05 % neohesperidin dihydrochalcone, six weeks
[4] = rabbit serum, 1 % cholesterol diet for 6 weeks plus 1 mg/kg Lovastatin or 0.05 % neohesperidin dihydrochalcone
[5] = rabbits, 1 % cholesterol plus 0.05 % neohesperidin dihydrochalcone, 6 weeks

## COc1ccc(CCC(=O)c2c(O)cc(O[C@@H]3O[C@H](CO)[C@@H](O)[C@H](O)[C@H]3O[C@@H]3O[C@@H](C)[C@H](O)[C@@H](O)[C@H]3O)cc2O)cc1O [Neohesperidin dihydrochalcone]
[1]; rabbit liver, cells around the central vein, mean of grades 1+ to 4+
  B: Proportion of abnormal fat-containing cells: 2.7 (±0.3)
[1]; rabbits
  microscopic features of the liver (Figs. 2B, 2C): almost all liver cells are of a normal shape
[2]; [4]
  GOT: 53 (±23) IU/1
  GPT: 42 (±20) IU/l
  Total-C: 1293 (±89) mg/dl
  γ-GTP: 7.8 (±5) IU/l
[2]; rabbits, 1 % cholesterol diet, 6 weeks
  reducing serum GOT and GPT levels, compared with Lovastatin®: more effective
[2]; [5]
  serum GOT level lowered, as compared to the Control group: 31%
  serum GPT level lowered, as compared to the Control group: 35%
ICR female mice
  survival at day 10: All the mice were alive
ICR female mice; autopsy on the 10th day
  pathological abnormality at autopsy: did not develop any pathological abnormality
Human
  plasma cholesterol content reduced: 20%
  plasma neutral lipid(triglyceride) content reduced: 15%
[3]; rabbit main artery
  A: Proportion(%) of fatty streak region to the total arterial area: 12 (±7) %
[3]; rabbits
  layer of macrophage-lipid complex on the arterial endothelium (Figs. 1B, 1C): no or very thin layers of macrophage-lipid complex
Sprague-Dawley rats
  (HDL-C)/(Total-C (%)): 16%
  neutral lipid content reduced, as compared with Control group: 9%
  total plasma cholesterol level reduced, as compared with Control group: 15%
Sprague-Dawley rats; n=10
  HDL-C: 19 ± 3 mg/dL
  TG: 52 ± 8 mg/dL
  Total-C: 115 ± 10 mg/dL
